Reference: patent publication US9540391B2, “Isomannide derivatives as inhibitors of soluble epoxide hydrolase” (SANOFI, priority 2013, dated 2017)
Where a name gives a salt, the structure may show the parent alone.

Target: T1, recombinant sEH (Homo sapiens, UniProt P34913)
T1 construct: made in house; host or cells: Sf9 insect cells
T1 sequence (P34913 1-555): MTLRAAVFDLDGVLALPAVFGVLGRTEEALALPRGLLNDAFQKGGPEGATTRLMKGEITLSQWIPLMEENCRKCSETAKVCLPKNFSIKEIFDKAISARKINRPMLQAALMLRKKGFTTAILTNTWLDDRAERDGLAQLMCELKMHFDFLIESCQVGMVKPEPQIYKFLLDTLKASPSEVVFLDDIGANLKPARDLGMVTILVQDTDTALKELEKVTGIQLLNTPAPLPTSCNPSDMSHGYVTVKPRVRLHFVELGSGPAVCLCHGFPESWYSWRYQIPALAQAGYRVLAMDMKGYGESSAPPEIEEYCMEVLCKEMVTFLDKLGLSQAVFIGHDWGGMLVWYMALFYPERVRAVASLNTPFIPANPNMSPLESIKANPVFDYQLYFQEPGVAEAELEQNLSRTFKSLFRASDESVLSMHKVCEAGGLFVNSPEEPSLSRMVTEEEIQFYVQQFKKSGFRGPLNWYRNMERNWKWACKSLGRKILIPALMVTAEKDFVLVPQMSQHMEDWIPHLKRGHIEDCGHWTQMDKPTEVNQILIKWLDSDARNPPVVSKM
Experiment: biochemical screening assay for inhibition of soluble epoxide hydrolase (fluorometric, Phome substrate)
In short: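 Reading fluorescence before substrate addition and after completion corrected for autofluorescence. Reaction: 5 μM Phome, 2 nM recombinant human sEH (Sf9-expressed), compound 0.0001–10 μM, 25 mM Hepes with 0.01% albumin, 15 min pre-incubation then 60 min at 30 °C; IC50 derived from % inhibition.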

Row | SMILES | IC50 [nM]
1 | Cc1cc(C)nc(S[C@H]2CO[C@H]3[C@@H]2OC[C@@H]3NC(=O)NC2CCCCC2)n1 [Example 47, 1-Cyclohexyl-3-[(3S,3aR,6S,6aS)-6-(4,6-dimethyl-pyrimidin-2-ylsulfanyl)-hexahydro-furo[3,2-b]furan-3-yl]-urea] | 51
2 | O=C(NC1CCCCC1)N[C@H]1CO[C@H]2[C@@H]1OC[C@@H]2Oc1cccc(Oc2ccccn2)c1 [Example 127, 1-Cyclohexyl-3-{(3S,3aR,6S,6aS)-6-[3-(pyridin-2-yloxy)-phenoxy]-hexa-hydro-furo[3,2-b]furan-3-yl}-urea] | 7
3 | Cc1nc(-c2ccccc2O[C@H]2CO[C@H]3[C@@H]2OC[C@@H]3NC(=O)NC2CCCCC2)cs1 [Example 20, 1-Cyclohexyl-3-{(3S,3aR,6S,6aS)-6-[2-(2-methyl-thiazol-4-yl)-phenoxy]-hexahydro-furo[3,2-b]furan-3-yl}-urea] | 2
4 | C[C@@H](NC(=O)N[C@H]1CO[C@H]2[C@@H]1OC[C@@H]2Oc1ccc(F)cc1)C1CCCCC1 [Example 165, 1-((R)-1-Cyclohexyl-ethyl)-3-[(3S,3aR,6S,6aS)-6-(4-fluoro-phenoxy)-hexahydro-furo[3,2-b]furan-3-yl]-urea] | 21
5 | CN(C)C[C@H]1CO[C@H]2[C@@H]1OC[C@@H]2NC(=O)NC1CCCCC1 [Example 9, 1-cyclohexyl-3-((3S,3aR,6S,6aR)-6-dimethylaminomethyl-hexahydro-furo[3,2-b]furan-3-yl)-urea; trifluoroacetate] | 450
6 | Cc1ncccc1O[C@H]1CO[C@H]2[C@@H]1OC[C@@H]2NC(=O)NCC1COc2ccccc2O1 (stereo partly drawn) [Example 196, 1-(2,3-Dihydro-benzo[1,4]dioxin-2-ylmethyl)-3-[(3S,3aR,6S,6aS)-6-(2-methyl-pyridin-3-yloxy)-hexahydro-furo[3,2-b]furan-3-yl]-urea] | 26
7 | Cc1ncccc1O[C@H]1CO[C@H]2[C@@H]1OC[C@@H]2NC(=O)NC(C)c1ccc(F)cc1 (stereo partly drawn) [Example 214, 1-[1-(4-Fluoro-phenyl)-ethyl]-3-[(3S,3aR,6S,6aS)-6-(2-methyl-pyridin-3-yloxy)-hexahydro-furo[3,2-b]furan-3-yl]-urea] | 14
8 | O=C(NC1CCCCC1)N[C@H]1CO[C@H]2[C@@H]1OC[C@@H]2Sc1ccncn1 [Example 49, 1-Cyclohexyl-3-[(3S,3aR,6S,6aS)-6-(pyrimidin-4-ylsulfanyl)-hexahydro-furo[3,2-b]furan-3-yl]-urea; hydrochloride] | 3
9 | O=C(NC1CCCCC1)N[C@H]1CO[C@H]2[C@@H]1OC[C@@H]2Oc1c[nH]c2ccccc12 [Example 5, 1-cyclohexyl-3-[(3S,3aR,6S,6aS)-6-(1H-indol-3-yloxy)-hexahydro-furo[3,2-b]furan-3-yl]-urea] | 3
10 | O=C(Nc1cccc(C(F)(F)F)c1)N[C@H]1CO[C@H]2[C@@H]1OC[C@@H]2C#Cc1ccccc1 [Example 299, 1-((3S,3aR,6S,6aR)-6-Phenylethynyl-hexahydro-furo[3,2-b]furan-3-yl)-3-(3-trifluoromethyl-phenyl)-urea] | 1250
11 | O=C(NC1CCCCC1)N[C@H]1CO[C@H]2[C@@H]1OC[C@@H]2SCC(F)(F)F [Example 45, 1-Cyclohexyl-3-[(3S,3aR,6S,6aS)-6-(2,2,2-trifluoro-ethylsulfanyl)-hexa-hydro-furo[3,2-b]furan-3-yl]-urea] | 25
12 | Cc1ncccc1O[C@H]1CO[C@H]2[C@@H]1OC[C@@H]2NC(=O)NCc1cnn(C)c1 [Example 192, 1-(1-Methyl-1H-pyrazol-4-ylmethyl)-3-[(3S,3aR,6S,6aS)-6-(2-methyl-pyridin-3-yloxy)-hexahydro-furo[3,2-b]furan-3-yl]-urea] | 1730
13 | O=C(NC1CCCCC1)N[C@H]1CO[C@H]2[C@@H]1OC[C@@H]2/C=C\c1ccccn1 [Example 334, 1-Cyclohexyl-3-[(3S,3aR,6S,6aR)-6-((Z)-2-pyridin-2-yl-vinyl)-hexahydro-furo[3,2-b]furan-3-yl]-urea; trifluoroacetate] | 159
14 | O=C(NC1CCc2ccccc21)NC1COC2C(Oc3ccc(F)cc3)COC12 [Example 150, 1-[(3S,3aR,6S,6aS)-6-(4-Fluoro-phenoxy)-hexahydro-furo[3,2-b]furan-3-yl]-3-(S)-indan-1-yl-urea] | 16
15 | Cc1cccc(CNC(=O)NC2COC3C(C#Cc4ccccc4)COC23)c1 [Example 291, 1-(3-Methyl-benzyl)-3-[(3S,3aR,6R)-6-((S)-phenylethynyl)-hexahydro-furo[3,2-b]furan-3-yl]-urea] | 37

Next, values leading:

Row | IC50 [nM] | SMILES
16 | 29 | Cc1ncccc1O[C@H]1CO[C@H]2[C@@H]1OC[C@@H]2NC(=O)NC(C)(C)Cc1ccc(F)cc1 [Example 185, 1-[2-(4-Fluoro-phenyl)-1,1-dimethyl-ethyl]-3-[(3S,3aR,6S,6aS)-6-(2-methyl-pyridin-3-yloxy)-hexahydro-furo[3,2-b]furan-3-yl]-urea]
17 | 229 | O=C(Nc1ccc2c(c1)OCO2)NC1COC2C(CCc3ccccc3)COC12 [Example 348, 1-Benzo[1,3]dioxol-5-yl-3-((3S,3aR,6S,-6aR)-6-phenethyl-hexahydro-furo[3,2-b]furan-3-yl)-urea]
18 | 17 | O=C(NC1CCCCC1)N[C@H]1CO[C@H]2[C@@H]1OC[C@@H]2/C=C\c1ccccc1 [Example 319, 1-Cyclohexyl-3-[(3S,3aR,6S,6aR)-6-((Z)-styryl)-hexahydro-furo[3,2-b]furan-3-yl]-urea]
19 | 5 | O=C(NC1CCCCC1)N[C@H]1CO[C@H]2[C@@H]1OC[C@@H]2Oc1cccc(-c2ccccc2)c1 [Example 104, 1-[(3S,3aR,6S,6aS)-6-(Biphenyl-3-yloxy)-hexahydro-furo[3,2-b]furan-3-yl]-3-cyclohexyl-urea]
20 | 37 | O=C(NC1CCCCC1)N[C@H]1CO[C@@H]2[C@@H](CCc3ccccc3)CO[C@@H]21 [Example 349, 1-Cyclohexyl-3-((3S,3aR,6S,6aR)-6-phenethyl-hexahydro-furo[3,2-b]furan-3-yl)-urea]
21 | 475 | Cc1cnc(CNC(=O)N[C@H]2CO[C@H]3[C@@H]2OC[C@@H]3Oc2cccnc2C)cn1 [Example 190, 1-(5-Methyl-pyrazin-2-ylmethyl)-3-[(3S,3aR,6S,6aS)-6-(2-methyl-pyridin-3-yloxy)-hexahydro-furo[3,2-b]furan-3-yl]-urea]
22 | 42 | O=C(NCCc1ccccc1)N[C@H]1CO[C@H]2[C@@H]1OC[C@@H]2/C=C\c1ccsc1 [Example 344, 1-Phenethyl-3-[(3S,3aR,6S,6aR)-6-((Z)-2-thiophen-3-yl-vinyl)-hexa-hydro-furo[3,2-b]furan-3-yl]-urea]
23 | 62 | O=C(N[C@H]1CO[C@H]2[C@@H]1OC[C@@H]2Oc1ccc(F)cc1)N[C@H]1CCC[C@@H]1OCc1ccccc1 [Example 153, 1-((1S,2S)-2-Benzyloxy-cyclopentyl)-3-[(3S,3aR,6S,6aS)-6-(4-fluoro-phenoxy)-hexahydro-furo[3,2-b]furan-3-yl]-urea]
24 | 7 | Cc1cc(C)cc(NC(=O)NC2COC3C(C=Cc4ccccc4)COC23)c1 [Example 322, 1-(3,5-Dimethyl-phenyl)-3-[(3S,3aR,6R)-6-((S)-(Z)-styryl)-hexa-hydro-furo[3,2-b]furan-3-yl]-urea]
25 | 56 | O=C(NCCc1cccs1)N[C@H]1CO[C@H]2[C@@H]1OC[C@@H]2C#Cc1ccsc1 [Example 313, 1-(2-Thiophen-2-yl-ethyl)-3-((3S,3aR,6S,6aR)-6-thiophen-3-ylethynyl-hexahydro-furo[3,2-b]furan-3-yl)-urea]
26 | 2 | O=C(NC1CCCCC1)N[C@H]1CO[C@H]2[C@@H]1OC[C@@H]2Oc1cccc(N2CCCC2=O)c1 [Example 107, 1-Cyclohexyl-3-{(3S,3aR,6S,6aS)-6-[3-(2-oxo-pyrrolidin-1-yl)-phenoxy]-hexahydro-furo[3,2-b]furan-3-yl}-urea]
27 | 1 | Cc1ncccc1O[C@H]1CO[C@H]2[C@@H]1OC[C@@H]2NC(=O)NCc1ccccc1OC(F)F [Example 188, 1-(2-Difluoromethoxy-benzyl)-3-[(3S,3aR,6S,6aS)-6-(2-methyl-pyridin-3-yloxy)-hexahydro-furo[3,2-b]furan-3-yl]-urea]
28 | 3 | O=C(NC1CCCCC1)N[C@H]1CO[C@H]2[C@@H]1OC[C@@H]2Oc1ccc(Br)cc1 [Example 138, 1-[(3S,3aR,6S,6aS)-6-(4-Bromo-phenoxy)-hexahydro-furo[3,2-b]furan-3-yl]-3-cyclohexyl-urea]
29 | 5 | N#CCc1cccc(O[C@H]2CO[C@H]3[C@@H]2OC[C@@H]3NC(=O)NC2CCCCC2)c1 [Example 117, 1-[(3S,3aR,6S,6aS)-6-(3-Cyano-methyl-phenoxy)-hexahydro-furo-[3,2-b]furan-3-yl]-3-cyclohexyl-urea]
30 | 39 | Cc1ncccc1O[C@H]1CO[C@H]2[C@@H]1OC[C@@H]2NC(=O)NCc1cccc2c1OC(C)(C)C2 [Example 224, 1-(2,2-Dimethyl-2,3-dihydro-benzofuran-7-ylmethyl)-3-[(3S,3aR,6S,6aS)-6-(2-methyl-pyridin-3-yloxy)-hexahydro-furo[3,2-b]furan-3-yl]-urea]
31 | < 1 | O=C(NC1CCCCC1)N[C@H]1CO[C@H]2[C@@H]1OC[C@@H]2Sc1ccc(F)cc1 [Example 15, 1-Cyclohexyl-3-[(3S,3aR,6S,6aS)-6-(4-fluoro-phenylsulfanyl)-hexahydro-furo[3,2-b]furan-3-yl]-urea]
